Assay results: PMC7529893, “Structural basis for substrate recognition and chemical inhibition of oncogenic MAGE ubiquitin ligases” (Nature Communications, 2020)
pIC50: −log10 of the molar value. Like-named read-outs stand apart in the source and are kept apart here.

Key:
[1] = biological target: T1, MAGE-A11:PCF11 interaction (GST-MAGE-A11 MHD and FAM-PCF11_4) (Homo sapiens, UniProt P43364); experiment: TR-FRET dose response test of compounds for disruption of MAGE-A11:PCF11 binding
T1 construct: GST-MAGE-A11 MHD (human MAGE-A11 MHD amino acid 218-429); made in house; host or cells: E. coli BL21(DE3)
T1 sequence (P43364 218-429): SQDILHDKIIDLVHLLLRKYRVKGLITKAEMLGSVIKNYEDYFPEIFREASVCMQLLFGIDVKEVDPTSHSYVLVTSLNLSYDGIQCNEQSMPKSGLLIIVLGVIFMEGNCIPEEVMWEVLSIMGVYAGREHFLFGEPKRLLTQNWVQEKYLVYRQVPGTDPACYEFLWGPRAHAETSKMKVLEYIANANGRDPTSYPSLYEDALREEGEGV
Protocol: The TR-FRET assay buffer with a formula of 50 mM Tris pH 7.5, 20 mM MgCl2, 0.1 mg/ml BSA and 1 mM DTT was freshly prepared before each experiment. All TR-FRET assays were performed in black 384-well plates with 20 µl/well assay volume in the TR-FRET assay buffer at room temperature (~25 °C). All peptides or compounds were solubilized in DMSO. To test the competitive activity of peptides or compounds against the interaction between GST-MAGE-A11 MHD and FAM-PCF11_4 peptide, 10 µl/well peptide or compound at specified concentration was dispensed into a black 384-well low volume plate, followed by 5 µl/well FAM-PCF11_4 (800 nM), 5 µl/well Tb-anti-GST (20 nM), and GST-MAGE-A11 MHD (20 nM). The assay components in each well was then mixed by shaking the plate on an IKA MTS 2/4 digital microtiter plate shaker (IKA Works; Wilmington, NC, USA) for 1 min. The plate was further centrifuged in an Eppendorf 5810 centrifuge with an A-4-62 swing-bucket rotor (Eppendorf AG, Hamburg, Germany) at 201 g for 30 s. The plate was then incubated for 90 min with a lid to avoid light exposure to the assay components. After incubation, the fluorescent emission signals at 520 nm and 490 nm channels of individual wells were measured with a PHERAstar FS plate reader (BMG Labtech; Durham, NC, USA) by using a 340 nm excitation filter, 100 µs delay time, and 200 µs integration time. The TR-FRET fluorescence emission ratio (TR-FRET signal) for each well was presented as 10,000 × 520 nm/490 nm, which was used directly for curve fitting, or further converted to %Inhibition based on the respective positive and negative controls. The graphic software GraphPad Prism 4.81 (GraphPad Software; La Jolla, CA, USA) was used to generate curves and derive IC50 values of tested peptides or compounds, if applicable.
TR-FRET screen for identifying MAGE-A11 small molecule inhibitors was performed as follows. The primary one-concentration screening and subsequent 10 or 20-concentration dose-response tests were accomplished with an automated High Throughput Screening system (HighRes Biosolutions, Beverly, MA)[30]. In the primary screening, 15 µl/well FAM-PCF11_4 (267 nM) was first dispensed with a Multidrop Combi Reagent Dispenser (Thermo Fisher Scientific, Waltham, MA) to black 384-well low-volume assay plates. The plates were spun down with a Velocity11 VSpin microplate centrifuge (Agilent Technologies, Santa Clara, CA). In total, 30 nl/well of 10 mM compound/DMSO solutions, or DMSO alone, were transferred from compound plates (the St. Jude FDA drug and bioactive library, Drug-like library and Lead-like library) or a control plate to the assay plates with a Pin Tool (V&P Scientific, San Diego, CA). The compounds were arrayed in columns 3–12 and columns 15–24 of compound plates. The controls were arrayed in columns 1, 2, 13, and 14 of a compound plate. In all, 5 µl/well Tb-anti-GST (20 nM) and GST-MAGE-A11 (20 nM) or 5 µl/well Tb-anti-GST (20 nM) alone was then dispensed to selected wells with a Multidrop Combi Reagent Dispenser. The final assay volume was 20 µl/well. The final DMSO concentration was 0.25% (v/v) (0.1% (v/v) from the FAM-PCF11_4 DMSO stock solution and 0.15% (v/v) from the compound-DMSO solution or the DMSO for the control wells). The final tested compound concentration was 15 µM. The final FAM-PCF11_4 concentration was 200 nM and the final Tb-anti-GST concentration was 5 nM. The final GST-MAGE-A11 concentration was 5 nM except for those selected positive control wells in which GST-MAGE-A11 was not presented. The plates were then shaken with a big bear shaker (Big Bear Automation, Santa Clara, California) and spun down with the Velocity11 VSpin microplate centrifuge for 20 s. The plates were then incubated at room temperature in a Liconic incubator (Liconic US, Woburn, MA) for 90 min. The TR-FRET signals for individual wells were measured with a PHERAstar FS plate reader. The %Inhibition of each tested inhibitor was calculated by using Eq. 1.

[2] = biological target: T2, MAGE-A11:PCF11 interaction (GST-MAGE-A11 and FAM-PCF11_4) (Homo sapiens, UniProt P43364); experiment: TR-FRET primary / single point screen at 15 µM; assay type: binding; settings: single point TR-FRET screening of 797 quinoline compounds against MAGE-A11:PCF11
T2 construct: GST-MAGE-A11 MHD (human MAGE-A11 MHD amino acid 218-429); made in house; host or cells: E. coli BL21(DE3)
T2 sequence (P43364 218-429): T1 sequence (P43364 218-429)
Procedure, shortened: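 Single-point screen at 15 µM final compound in 50 mM Tris pH 7.5, 20 mM MgCl2, 0.1 mg/ml BSA, 1 mM DTT, with 200 nM FAM-PCF11_4, 5 nM Tb-anti-GST and 5 nM GST-MAGE-A11. After 90 min at room temperature, the 520/490 nm TR-FRET ratio (340 nm excitation) gave %Inhibition against no-MAGE-A11 and DMSO controls.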

[3] = Dose response TR-FRET screening of nine scaffold groups against MAGE-A11:PCF11, read-out: consensus IC50
[4] = Supplementary Data 3, 59 quinoline compounds, read-out: TR-FRET IC50

| Structure (SMILES) | pIC50 [1, 3] | further results |
| --- | --- | --- |
| Cc1ccc(S(=O)(=O)N2CCN(C3=C(Cl)C(=O)c4ccccc4C3=O)CC2)cc1 [SJ000021282-1] | 4.98 | – |
| O=C1C(Cl)=C(NC(=O)C(F)(F)F)C(=O)c2ccccc21 [SJ000024928-1] | 5.01 | – |
| Cc1ccc(S(=O)(=O)c2nc(-c3cccc(C)c3)oc2N2CCOCC2)cc1 [SJ000027480-1] | 4.95 | – |
| O=S(=O)(c1ccc(Cl)cc1)c1nc(-c2cccc(Br)c2)oc1N1CCOCC1 [SJ000027481-1] | 5.04 | – |
| Cc1ccc(S(=O)(=O)c2nc(-c3cccc([N+](=O)[O-])c3)oc2N2CCOCC2)cc1 [SJ000027482-1] | 5.02 | – |
| CCCCOc1ccc(N(C(C)=O)C2=C(Cl)C(=O)c3ccccc3C2=O)cc1 [SJ000032717-1] | 5.06 | – |
| CCCCCOc1ccc(N(C(C)=O)C2=C(Cl)C(=O)c3ccccc3C2=O)cc1 [SJ000032724-1] | 4.55 | – |
| COc1cccc(-c2nc(S(=O)(=O)c3ccc(C)cc3)c(N3CCOCC3)o2)c1 [SJ000038123-1] | 4.76 | – |
| COc1cccc(-c2nc(S(=O)(=O)c3ccc(Cl)cc3)c(N3CCOCC3)o2)c1 [SJ000038124-1] | 5.13 | – |
| COP(=O)(OC)c1nc(-c2ccc(Cl)cc2)oc1N1CCOCC1 [SJ000090185-1] | – | pIC50 [1]: 4.76 |
| CN(C)c1ccc(NC2=C(Cl)C(=O)c3ccccc3C2=O)cc1 [SJ000109503-1] | 5.48 | – |
| COc1cc2nc(N3CCN(C(=O)C4COc5ccccc5O4)CC3)nc(N)c2cc1OC (stereo not drawn) [SJ000113084-10] | 4.24 | – |
| CCOC(=O)N1CCN(Cc2ccc3c(c2)c2ccccc2n3CC)CC1 [SJ000147352-1] | 4.53 | – |
| CCC(COC(C)=O)NC1=C(Cl)C(=O)c2ccccc2C1=O (stereo not drawn) [SJ000149466-1] | 4.76 | – |
| CCCS(=O)(=O)N1CCN(Cc2ccc3c(c2)c2ccccc2n3CC)CC1 [SJ000167951-1] | 4.72 | – |
| Cc1ccc(S(=O)(=O)c2nc(-c3ccc(F)cc3)oc2N2CCOCC2)cc1 [SJ000230854-1] | 4.93 | – |
| Cc1ccc(S(=O)(=O)c2nc(-c3ccccc3Cl)oc2N2CCOCC2)cc1 [SJ000230856-1] | 5.36 | – |
| O=S(=O)(c1ccccc1)c1nc(-c2ccc(Br)cc2)oc1N1CCOCC1 [SJ000244320-1] | 5.06 | – |
| CS(=O)(=O)c1ccc(C2=C(c3ccccc3)C(=O)OC2)cc1 [SJ000285362-5] | 4.17 | – |
| COc1cc2nc(N(C)CCCNC(=O)C3CCCO3)nc(N)c2cc1OC (stereo not drawn) [SJ000286094-9] | 4.44 | – |
| C=CCn1c(=O)c2c(nc(-c3ccc(S(=O)(=O)O)cc3)n2C)n(C)c1=O [SJ000287614-4] | < 4.15 | – |
| Cn1c(=O)c2[nH]c(-c3ccc(S(=O)(=O)O)cc3)nc2n(C)c1=O [SJ000287642-4] | 4.66 | – |
| NC1=C(N2CCCCC2)C(=O)c2ccccc2C1=O [SJ000294373-2] | 4.70 | – |

| Structure (SMILES) | pIC50 [1, 3] | further results |
| --- | --- | --- |
| CC(C)(C)c1ccc(O)c(CNCCCNc2ccnc3cc(Cl)ccc23)c1 [SJ000311193-1] | 4.52 | – |
| c1ccc(Oc2ccc3c(NCCCNCc4cccc5c4OCO5)ccnc3c2)cc1 [SJ000311208-1] | 4.52 | – |
| COc1ccc(F)cc1CNCCCNc1ccnc2cc(Oc3ccccc3)ccc12 [SJ000311209-1] | 4.54 | – |
| COc1cccc(Oc2ccc3c(NCCCNCc4cccc5c4OCO5)ccnc3c2)c1 [SJ000311216-1] | 4.43 | – |
| COc1cccc(Oc2ccc3c(NCCCNCc4cc(F)ccc4OC)ccnc3c2)c1 [SJ000311217-1] | 4.43 | – |
| COc1ccc(Oc2ccc3c(NCCCNCc4ccco4)ccnc3c2)cc1 [SJ000311218-1, COc1ccc(Oc2ccc3c(NCCCNCc4occc4)ccnc3c2)cc1] | – | pIC50 [1, 4]: < 4.15 |
| COc1ccc(Oc2ccc3c(NCCCNCc4cccc(OC)c4O)ccnc3c2)cc1 [SJ000311219-1] | 4.54 | – |
| COc1ccc(Oc2ccc3c(NCCCNCc4cccc5c4OCO5)ccnc3c2)cc1 [SJ000311220-1] | 4.36 | – |
| COc1ccc(Oc2ccc3c(NCCCNCc4cc(F)ccc4OC)ccnc3c2)cc1 [SJ000311221-1] | 4.33 | – |
| COc1cccc(CNCCCNc2ccnc3cc(Oc4ccc(F)cc4)ccc23)c1O [SJ000311223-1] | 4.21 | – |
| Fc1ccc(Oc2ccc3c(NCCCNCc4cccc5c4OCO5)ccnc3c2)cc1 [SJ000311224-1] | 4.22 | – |
| Clc1ccc(Oc2ccc3c(NCCCNCc4ccco4)ccnc3c2)cc1 [SJ000311226-1, Clc1ccc(Oc2ccc3c(NCCCNCc4occc4)ccnc3c2)cc1] | – | pIC50 [1, 4]: < 4.15 |
| COc1cccc(CNCCCNc2ccnc3cc(Oc4ccc(Cl)cc4)ccc23)c1O [SJ000311227-1] | 4.68 | – |
| Clc1ccc(Oc2ccc3c(NCCCNCc4cccc5c4OCO5)ccnc3c2)cc1 [SJ000311228-1] | 4.75 | – |
| COc1ccc(F)cc1CNCCCNc1ccnc2cc(Oc3ccc(Cl)cc3)ccc12 [SJ000311229-1] | 4.71 | – |
| CN(C)c1cccc(Oc2ccc3c(NCCCNCc4ccco4)ccnc3c2)c1 [SJ000311230-1, CN(C)c1cccc(Oc2ccc3c(NCCCNCc4occc4)ccnc3c2)c1] | – | pIC50 [1, 4]: < 4.15 |
| COc1ccc(F)cc1CNCCCNc1ccnc2cc(Oc3cccc(N(C)C)c3)ccc12 [SJ000311233-1] | 5.25 | – |
| CC(C)(C)c1ccc(Oc2ccc3c(NCCCNCc4ccco4)ccnc3c2)cc1 [SJ000311234-1, CC(C)(C)c1ccc(Oc2ccc3c(NCCCNCc4occc4)ccnc3c2)cc1] | – | pIC50 [1, 4]: 4.49 |
| COc1cccc(CNCCCNc2ccnc3cc(Oc4ccc(C(C)(C)C)cc4)ccc23)c1O [SJ000311235-1] | 5.12 | – |
| CC(C)(C)c1ccc(Oc2ccc3c(NCCCNCc4cccc5c4OCO5)ccnc3c2)cc1 [SJ000311236-1] | 5.06 | – |
| Cc1cc(NC(=O)CN[C@H]2CCN(Cc3ccccc3)C2)c2ccccc2n1 [SJ000832405] | – | percent inhibition (TR-FRET) [2]: 4.364 |
| Cc1cc(NC(=O)CN[C@H]2CCN(Cc3cccc(F)c3)C2)c2ccccc2n1 [SJ000832581] | – | percent inhibition (TR-FRET) [2]: -1.278 |
